In the supplement of paper PMC10307832:

Legend:
Experiment in all cases: relative viability (nuclei count vs DMSO), 5 days (fraction); higher = more cells survive
[1] = compound: C=CC(=O)Nc1cc(-n2c(=O)ccc3cnc4ccc(-c5ccc(NS(C)(=O)=O)cc5)cc4c32)ccc1C [BMX-IN-1] + CC(C)C[C@H](NC(=O)[C@H](Cc1ccccc1)NC(=O)c1cnccn1)B(O)O [Bortezomib] (partner 0.002 µM)
Procedure, shortened: (§1)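 Nuclei were stained with Hoechst during a one-step fixation (final 0.05% Triton X-100, 1% formaldehyde, 1 ug/ml Hoechst) carried out 5 days after dosing, then counted on 4× images. The cells, lung cancer lines in 1536-well plates, had been dosed by pin tool the day after seeding with one drug alone or a fixed anchor-drug dose plus five library-drug doses (not always all listed) in √10 steps. Relative viability is the nuclei count in treated wells divided by that in vehicle wells, and each value is the median of duplicate plates.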

[2] = compound: C=CC(=O)Nc1cc(-n2c(=O)ccc3cnc4ccc(-c5ccc(NS(C)(=O)=O)cc5)cc4c32)ccc1C [BMX-IN-1] + C[C@@H](Oc1cc(-c2cnn(C3CCNCC3)c2)cnc1N)c1c(Cl)ccc(F)c1Cl [Crizotinib] (partner 1 µM)
Procedure, shortened: as §1

[3] = compound: C=CC(=O)N1CCC[C@@H](n2nc(-c3ccc(Oc4ccccc4)cc3)c3c(N)ncnc32)C1 [Ibrutinib] + CC(C)C[C@H](NC(=O)[C@H](Cc1ccccc1)NC(=O)c1cnccn1)B(O)O [Bortezomib] (partner 0.002 µM)
Procedure, shortened: as §1

[4] = compound: C=CC(=O)Nc1cc(-n2c(=O)ccc3cnc4ccc(-c5ccc(NS(C)(=O)=O)cc5)cc4c32)ccc1C [BMX-IN-1] + Cc1nc(Nc2ncc(C(=O)Nc3c(C)cccc3Cl)s2)cc(N2CCN(CCO)CC2)n1 [Dasatinib] (partner 0.075 µM)
Procedure, shortened: as §1

SK-LU-1
relative viability ([1]; first compound 0.02 µM): 1.52
relative viability ([1]; first compound 0.2 µM): 1.47
relative viability ([1]; first compound 0.6325 µM): 1.22
relative viability ([1]; first compound 2 µM): 1.07
relative viability ([2]; first compound 0.02 µM): 1.02
relative viability ([2]; first compound 0.2 µM): 0.906
relative viability ([2]; first compound 0.6325 µM): 0.868
relative viability ([2]; first compound 2 µM): 0.904
relative viability ([3]; first compound 0.01581 µM): 1.11
relative viability ([3]; first compound 0.05 µM): 0.897
relative viability ([3]; first compound 0.1581 µM): 1.14
relative viability ([3]; first compound 0.5 µM): 1.23
relative viability ([4]; first compound 0.02 µM): 0.22
relative viability ([4]; first compound 0.2 µM): 0.174
relative viability ([4]; first compound 0.6325 µM): 0.169
relative viability ([4]; first compound 2 µM): 0.171

PC-3 [JPC-3]
relative viability ([1]; first compound 0.02 µM): 0.913
relative viability ([1]; first compound 0.2 µM): 0.955
relative viability ([1]; first compound 0.6325 µM): 0.944
relative viability ([1]; first compound 2 µM): 0.824
relative viability ([2]; first compound 0.02 µM): 1.34
relative viability ([2]; first compound 0.2 µM): 1.03
relative viability ([2]; first compound 0.6325 µM): 1.03
relative viability ([2]; first compound 2 µM): 0.99
relative viability ([3]; first compound 0.005 µM): 0.837
relative viability ([3]; first compound 0.01581 µM): 0.805
relative viability ([3]; first compound 0.05 µM): 0.831
relative viability ([3]; first compound 0.1581 µM): 0.826
relative viability ([3]; first compound 0.5 µM): 0.635
relative viability ([4]; first compound 0.02 µM): 1
relative viability ([4]; first compound 0.2 µM): 1.19
relative viability ([4]; first compound 0.6325 µM): 1.07
relative viability ([4]; first compound 2 µM): 0.943

ChaGo-K-1
relative viability ([1]; first compound 0.02 µM): 1.08
relative viability ([1]; first compound 0.2 µM): 1.1
relative viability ([1]; first compound 0.6325 µM): 1.31
relative viability ([1]; first compound 2 µM): 1.17
relative viability ([2]; first compound 0.02 µM): 1.39
relative viability ([2]; first compound 0.2 µM): 1.07
relative viability ([2]; first compound 0.6325 µM): 1.18
relative viability ([2]; first compound 2 µM): 1.17
relative viability ([3]; first compound 0.005 µM): 0.906
relative viability ([3]; first compound 0.01581 µM): 1.04
relative viability ([3]; first compound 0.05 µM): 0.927
relative viability ([3]; first compound 0.5 µM): 0.959
relative viability ([4]; first compound 0.02 µM): 0.63
relative viability ([4]; first compound 0.2 µM): 0.598
relative viability ([4]; first compound 0.6325 µM): 0.633
relative viability ([4]; first compound 2 µM): 0.561

NCI-H3122
relative viability ([1]; first compound 0.02 µM): 1.04
relative viability ([1]; first compound 0.2 µM): 0.974
relative viability ([1]; first compound 0.6325 µM): 1.05
relative viability ([1]; first compound 2 µM): 0.994
relative viability ([2]; first compound 0.02 µM): 0.3
relative viability ([2]; first compound 0.2 µM): 0.27
relative viability ([2]; first compound 0.6325 µM): 0.271
relative viability ([2]; first compound 2 µM): 0.3
relative viability ([3]; first compound 0.005 µM): 1.07
relative viability ([3]; first compound 0.01581 µM): 1.05
relative viability ([3]; first compound 0.05 µM): 1.08
relative viability ([3]; first compound 0.1581 µM): 0.955
relative viability ([3]; first compound 0.5 µM): 1.02
relative viability ([4]; first compound 0.02 µM): 1.03
relative viability ([4]; first compound 0.2 µM): 0.936
relative viability ([4]; first compound 0.6325 µM): 0.837
relative viability ([4]; first compound 2 µM): 0.84

NCI-H1703
relative viability ([1]; first compound 0.02 µM): 0.257
relative viability ([1]; first compound 0.2 µM): 0.329
relative viability ([1]; first compound 0.6325 µM): 0.337
relative viability ([1]; first compound 2 µM): 0.242
relative viability ([2]; first compound 0.02 µM): 0.821
relative viability ([2]; first compound 0.2 µM): 0.952
relative viability ([2]; first compound 0.6325 µM): 0.631
relative viability ([2]; first compound 2 µM): 0.56
relative viability ([3]; first compound 0.005 µM): 0.374
relative viability ([3]; first compound 0.01581 µM): 0.308
relative viability ([3]; first compound 0.05 µM): 0.332
relative viability ([3]; first compound 0.1581 µM): 0.409
relative viability ([3]; first compound 0.5 µM): 0.231

NCI-H2126
relative viability ([1]; first compound 0.02 µM): 1.13
relative viability ([1]; first compound 0.2 µM): 1.17
relative viability ([1]; first compound 0.6325 µM): 1.19
relative viability ([1]; first compound 2 µM): 1.19
relative viability ([2]; first compound 0.02 µM): 1.2
relative viability ([2]; first compound 0.2 µM): 1.06
relative viability ([2]; first compound 0.6325 µM): 1.15
relative viability ([2]; first compound 2 µM): 1.1
relative viability ([3]; first compound 0.01581 µM): 1.13
relative viability ([3]; first compound 0.05 µM): 1.12
relative viability ([3]; first compound 0.1581 µM): 1.11
relative viability ([3]; first compound 0.5 µM): 1.1
relative viability ([4]; first compound 0.02 µM): 0.624
relative viability ([4]; first compound 0.2 µM): 0.645
relative viability ([4]; first compound 0.6325 µM): 0.616
relative viability ([4]; first compound 2 µM): 0.601

NCI-H1993
relative viability ([1]; first compound 0.02 µM): 1.1
relative viability ([1]; first compound 0.2 µM): 1.11
relative viability ([1]; first compound 2 µM): 0.959
relative viability ([2]; first compound 0.02 µM): 0.912
relative viability ([2]; first compound 0.2 µM): 0.873
relative viability ([2]; first compound 2 µM): 0.835
relative viability ([3]; first compound 0.005 µM): 0.728
relative viability ([3]; first compound 0.01581 µM): 0.882
relative viability ([3]; first compound 0.05 µM): 0.789
relative viability ([3]; first compound 0.5 µM): 0.681
relative viability ([4]; first compound 0.02 µM): 0.659
relative viability ([4]; first compound 0.2 µM): 0.703
relative viability ([4]; first compound 0.6325 µM): 0.479
relative viability ([4]; first compound 2 µM): 0.634

NCI-H1793
relative viability ([4]; first compound 0.02 µM): 0.417
relative viability ([4]; first compound 0.2 µM): 0.432
relative viability ([4]; first compound 0.6325 µM): 0.479
relative viability ([4]; first compound 2 µM): 0.451

NCI-H441
relative viability ([1]; first compound 0.02 µM): 0.483
relative viability ([1]; first compound 0.2 µM): 0.517
relative viability ([1]; first compound 0.6325 µM): 0.483
relative viability ([1]; first compound 2 µM): 0.27
relative viability ([2]; first compound 0.02 µM): 0.861
relative viability ([2]; first compound 0.2 µM): 0.936
relative viability ([2]; first compound 0.6325 µM): 0.884
relative viability ([2]; first compound 2 µM): 0.787
relative viability ([3]; first compound 0.005 µM): 0.518
relative viability ([3]; first compound 0.01581 µM): 0.498
relative viability ([3]; first compound 0.05 µM): 0.45
relative viability ([3]; first compound 0.1581 µM): 0.575
relative viability ([3]; first compound 0.5 µM): 0.479
relative viability ([4]; first compound 0.02 µM): 0.741
relative viability ([4]; first compound 0.2 µM): 0.79
relative viability ([4]; first compound 0.6325 µM): 0.709
relative viability ([4]; first compound 2 µM): 0.707

H3255
relative viability ([1]; first compound 0.02 µM): 0.916
relative viability ([1]; first compound 0.2 µM): 0.466
relative viability ([1]; first compound 0.6325 µM): 0.99
relative viability ([1]; first compound 2 µM): 0.732
relative viability ([2]; first compound 0.02 µM): 0.969
relative viability ([2]; first compound 0.2 µM): 1.11
relative viability ([2]; first compound 0.6325 µM): 0.968
relative viability ([2]; first compound 2 µM): 0.924
relative viability ([3]; first compound 0.005 µM): 0.583
relative viability ([3]; first compound 0.01581 µM): 0.889
relative viability ([3]; first compound 0.05 µM): 0.51
relative viability ([3]; first compound 0.1581 µM): 0.617
relative viability ([3]; first compound 0.5 µM): 0.313
relative viability ([4]; first compound 0.02 µM): 0.363
relative viability ([4]; first compound 0.2 µM): 0.394
relative viability ([4]; first compound 0.6325 µM): 0.397
relative viability ([4]; first compound 2 µM): 0.33
